Laboratory results taken from the supplement of paper PMC10307832.

Columns and labels:
Assay in all cases: relative viability (nuclei count vs DMSO), 5 days (fraction); higher = more cells survive
IDH-C35 + Pemetrexed = compound: Cc1ccccc1C(C(=O)NC1CCCCC1)N(C(=O)Cn1ccnc1C)c1cccc(F)c1 [IDH-C35] + Nc1nc2[nH]cc(CCc3ccc(C(=O)N[C@@H](CCC(=O)O)C(=O)O)cc3)c2c(=O)[nH]1 [Pemetrexed] (partner 0.2 µM)
In short: (§1)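 A single step with final 0.05% Triton X-100, 1% formaldehyde and 1 ug/ml Hoechst fixed the cells and stained nuclei 5 days after treatment. Lung cancer cell lines in 1536-well plates had been treated by pin tool the day after seeding with one drug alone or a fixed anchor-drug dose plus five library-drug doses (not always all listed) in √10 steps, and nuclei were counted on 4× images. Relative viability is the ratio of nuclei in treated wells to nuclei in vehicle wells, taken as the median of duplicate plates.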

[1] = compound: CC1=C(C(=NN1)C)CC2=C(C3=C(S2)N(C(=O)N(C3=O)C)CC(C)C)C(=O)N4C[C@@H](CO4)O + COc1cccc2cc(-c3nc([C@H]4CC[C@H](C(=O)O)CC4)n4ncnc(N)c34)[nH]c12 [OSI-027] (partner 0.5 µM)
In short: as §1

IDH-C35 = compound: Cc1ccccc1C(C(=O)NC1CCCCC1)N(C(=O)Cn1ccnc1C)c1cccc(F)c1 [IDH-C35]
In short: (§2)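 Hoechst staining, done together with fixation and permeabilisation, marked nuclei for 4× imaging and MetaXpress counting. This followed 5 days without medium change after lung cancer cell lines, kept overnight at 37 °C in 1536-well plates, were pinned with five library-drug doses (not always all listed) spaced by √10 on vehicle-anchored plates. Viability is the ratio of treated-well to vehicle-well nuclei, expressed as a median across plates. Plates passed only at control CV below 25% with at least one doubling.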

[2] = compound: CC1=C(C(=NN1)C)CC2=C(C3=C(S2)N(C(=O)N(C3=O)C)CC(C)C)C(=O)N4C[C@@H](CO4)O
In short: as §2

| Cell Line | relative viability (IDH-C35 + Pemetrexed; first compound 0.08 µM) | relative viability (IDH-C35 + Pemetrexed; first compound 0.253 µM) | relative viability (IDH-C35 + Pemetrexed; first compound 0.8 µM) | relative viability (IDH-C35 + Pemetrexed; first compound 2.53 µM) | relative viability (IDH-C35 + Pemetrexed; first compound 8 µM) | relative viability ([1]; first compound 0.0025 µM) | relative viability ([1]; first compound 0.007906 µM) | relative viability ([1]; first compound 0.025 µM) | relative viability ([1]; first compound 0.07906 µM) | relative viability ([1]; first compound 0.25 µM) | relative viability (IDH-C35; 0.08 µM) | relative viability (IDH-C35; 0.253 µM) | relative viability (IDH-C35; 0.8 µM) | relative viability (IDH-C35; 2.53 µM) | relative viability (IDH-C35; 8 µM) | relative viability ([2]; 0.0025 µM) | relative viability ([2]; 0.007906 µM) | relative viability ([2]; 0.025 µM) | relative viability ([2]; 0.07906 µM) | relative viability ([2]; 0.25 µM) |
| --- | --- | --- | --- | --- | --- | --- | --- | --- | --- | --- | --- | --- | --- | --- | --- | --- | --- | --- | --- | --- |
| PC-3 [JPC-3] | 1.05 | 1.06 | 1.17 | 1.29 | 1.21 | 0.763 | 0.679 | 0.755 | 0.785 | 0.859 | 1.04 | 1 | 1.04 | 1.08 | 1.04 | 1.1 | 1.05 | 1.01 | 1.04 | 1.07 |
| PC-14 | 0.127 | 0.135 | 0.152 | 0.154 | 0.133 | 0.785 | 1.19 | 0.78 | 1.01 | 1.16 | 1.04 | 0.996 | 1 | 0.997 | 0.937 | 1.06 | 1.06 | 0.889 | 1.12 | 1.16 |
| RERF-LC-KJ | 0.431 | 0.492 | 0.478 | 0.481 | 0.523 | 0.589 | 0.519 | 0.598 | 0.681 | 0.627 | 0.962 | 0.929 | 1.03 | 1.01 | 0.943 | 1.01 | 1.07 | 0.985 | 0.98 | 1.06 |
| SK-LU-1 | 1.06 | 0.983 | 1.03 | 1.05 | 0.887 | 0.311 | 0.227 | 0.217 | 0.246 | 0.229 | 1.01 | 0.986 | 1.1 | 1.05 | 1.01 | 0.914 | 0.789 | 0.634 | 0.714 | 0.615 |
| SK-MES-1 | 0.91 | 0.988 | 0.925 | 0.861 | 0.874 | 0.664 | 0.68 | 0.634 | 0.66 | 0.694 | 0.983 | 0.984 | 0.985 | 1.02 | 0.986 | 1.03 | 1.07 | 1.02 | 1.07 | 1.06 |
| SW 900 | 0.51 | 0.459 |  | 0.506 | 0.485 | 0.671 | 0.66 | 0.55 | 0.659 | 0.54 | 0.871 | 0.849 | 0.768 | 0.834 | 0.897 | 1.06 | 1.16 | 0.835 | 0.888 | 0.97 |
| SW 1573 | 0.692 | 0.889 | 0.879 | 0.789 | 0.763 | 0.711 | 0.846 | 0.527 | 0.69 | 0.64 | 1.1 | 1.12 | 0.951 | 0.875 | 0.898 | 1.02 | 1.09 | 0.975 | 0.957 | 1.05 |
